Bridge positions count the residues as written; N and C are the ends. Square brackets hold non-standard residues; d marks the D form. Peptide text beside a SMILES is read from it. dPhe(4-Cl) = N[C@H](Cc1ccc(Cl)cc1)C(=O)O; d2Nal = N[C@H](Cc1ccc2ccccc2c1)C(=O)O; Dap = NC[C@H](N)C(=O)O

The nature of this test: Biological potency in the anti-ovulatory assay in rat (dosage rats ovulating/total rats). Format: functional.
With `CC(=O)N1CCC[C@H]1C(=O)N[C@H](Cc1ccc(F)cc1)C(=O)N[C@H](Cc1c[nH]c2ccccc12)C(=O)N[C@H]1CC(=O)NC[C@@H](C(N)=O)NC(=O)[C@@H]2CCCN2C(=O)[C@H](CCCN=C(N)N)NC(=O)[C@H](CC(C)C)NC(=O)[C@@H](Cc2ccc3ccccc3c2)NC(=O)[C@H](Cc2ccc(O)cc2)NC1=O`, the Dosage came out at 10 µg.

On to `CC(C)C[C@@H]1C(=O)N[C@@H](CCCN=C(N)N)C(=O)N2CCC[C@@H]2C(=O)NCCC(=O)N2CCC[C@@H]2C(=O)N[C@@H](Cc2ccc(Cl)cc2)C(=O)N[C@H](Cc2c[nH]c3ccccc23)C(=O)N[C@@H](CO)C(=O)N[C@H](Cc2ccc(O)cc2)C(=O)N[C@@H](Cc2c[nH]c3ccccc23)C(=O)N1C`, for which the Dosage is 1000 µg.

`CC(=O)N[C@H](Cc1ccc2ccccc2c1)C(=O)N[C@H](Cc1ccc(Cl)cc1)C(=O)N[C@H](Cc1c[nH]c2ccccc12)C(=O)N[C@H]1CC(=O)NC[C@@H](C(N)=O)NC(=O)[C@@H]2CCCN2C(=O)[C@@H]2CCCCNC(=O)CC[C@H](NC1=O)C(=O)N[C@H](CCCN=C(N)N)C(=O)N[C@@H](CC(C)C)C(=O)N2` (Ac-[d2Nal][dPhe(4-Cl)][dW]DE[dR]LKP[Dap]-NH2; lactam 4-10, 5-8) yielded a Dosage of 5 µg.

Source of the values: ChEMBL document CHEMBL1126869, “Conformational analysis of a highly potent dicyclic gonadotropin-releasing hormone antagonist by nuclear magnetic resonance and molecular dynamics” (1993).
